The record followed here is article PMC2885440 (Journal of natural products, 2010).

This series is described as follows: Relative polarity on C12 reversed-phase HPLC. The settings on record: C12 reversed-phase HPLC (Jupiter Proteo C12), linear gradient 50–80% MeOH in 0.05% TFA in 50 min. The format is physicochemical.

Turning to “Lys-Ala-Leu1-Leu2-Trp (lariat or depsi) [Paltolide A]”, the “polarity among compounds 1–6” value is “most polar”.
